As a reminder, the IC50 is the concentration that gives 50% inhibition. A higher IC50 goes with a need for much substance.

The target of this test is T1, Tyrosine-protein kinase ZAP-70 (Homo sapiens, UniProt P43403).
T1 sequence (P43403 whole entry): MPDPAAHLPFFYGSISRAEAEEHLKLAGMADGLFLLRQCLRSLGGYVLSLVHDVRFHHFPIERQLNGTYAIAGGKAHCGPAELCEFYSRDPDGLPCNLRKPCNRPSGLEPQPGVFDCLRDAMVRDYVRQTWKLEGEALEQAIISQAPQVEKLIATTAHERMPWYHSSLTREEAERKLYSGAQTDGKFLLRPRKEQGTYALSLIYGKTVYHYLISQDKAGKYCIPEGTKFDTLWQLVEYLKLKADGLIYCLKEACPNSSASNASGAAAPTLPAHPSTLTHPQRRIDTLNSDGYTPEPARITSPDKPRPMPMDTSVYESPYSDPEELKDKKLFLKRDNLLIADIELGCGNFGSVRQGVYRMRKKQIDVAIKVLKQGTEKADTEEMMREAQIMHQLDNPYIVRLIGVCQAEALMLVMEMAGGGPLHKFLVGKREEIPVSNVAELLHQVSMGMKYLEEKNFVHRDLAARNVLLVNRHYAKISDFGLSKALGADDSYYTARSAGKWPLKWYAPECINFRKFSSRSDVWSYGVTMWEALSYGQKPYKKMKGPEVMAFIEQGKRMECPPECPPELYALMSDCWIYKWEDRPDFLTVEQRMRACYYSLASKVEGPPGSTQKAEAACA
Nature of the test: Inhibition Assay. The text has this: Inhibition of protein tyrosine kinases

Each structure is given as a SMILES string.

`Cc1ccc(-c2nn(C(C)(C)C)c3ncnc(N)c23)cc1`: the IC50 was more than 100 µM.

The record behind these values is BindingDB's records for doi:10.1016/s1074-5521(99)80118-5 (Princeton University, 1999).
